Measured values from patent publication US20040115822A1, “Methods of measuring the dissolution rate of an analyte in a non-aqueous liquid composition” (priority 2002, published 2004).

Assay: Solubility of CCFA as a function of pH
Format: physicochemical
Conditions: below pH 5
From the text: In this example, CCFA was employed as the analyte. The solubility of CCFA varies as a function of pH.

Compound: CO/N=C(\C(=O)N[C@@H]1C(=O)N2C(C(=O)O)=C(CSC(=O)c3ccco3)CS[C@H]12)c1csc(N)n1 [CCFA, ceftiofur crystalline free acid]
- solubility of CCFA: relatively insoluble
